Experimental data from US20040007689A1, “Process for controlling the hydrate mix of a compound” (Pfizer Inc., priority 2002, published 2004).

Tests used:
[1] = Chemical and thermal stability of DSFF hydration forms and hydrate mixes; type: physicochemical; conditions: for stability of hydration form (chemical / thermal): hydration forms of DSFF, solid state
[2] = Water content of freeze-dried DSFF product; type: physicochemical; conditions: DSFF subjected to a typical freeze-drying process

Row | stability of hydration form (chemical / thermal) [1] | stability of product of typical freeze-drying process ([1]; DSFF after typical freeze-drying with secondary drying, water content about 1.2% w/w (below monohydrate stoichiometry)) | water content of product of typical freeze-drying process [2] | Structure (SMILES)
1 | chemically and thermally stable |  |  | O.O.O.O=P([O-])([O-])OC(Cn1cncn1)(Cn1cncn1)c1ccc(F)cc1F.[Na+].[Na+] [trihydrate, DSFF Trihydrate]
2 | chemically and thermally stable |  |  | O.O.O.O.O.O.O=P([O-])([O-])OC(Cn1cncn1)(Cn1cncn1)c1ccc(F)cc1F.[Na+].[Na+] [hexahydrate, DSFF Hexahydrate]
3 |  | chemically unstable and degrades | about 1.2 % w/w | O=P([O-])([O-])OC(Cn1cncn1)(Cn1cncn1)c1ccc(F)cc1F.[Na+].[Na+] [DSFF, disodium salt of fosfluconazole]
